Measured values: the supplement of paper PMC11061612

Assays:
Assay in all cases: combination Emax (second highest fraction inhibited in the dose matrix, 72 h); higher = more inhibition; extreme values may be limits of the assay
[1] = system: SBC-5 (Small Cell Lung Carcinoma)
How it was run: (§1)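 After 24 hours at 37°C and 5% CO2 in 1536-well plates, cells in DMEM/F12 or RPMI plus 10% FBS received two-drug dose matrices for 72 hours. Viability came from CellTiter-Glo 2.0 luminescence and was scaled as inhibition, anchored at 0 by vehicle wells and at 1 by blank wells. Combination Emax is taken as the second-highest inhibition in the matrix, and Bliss excess as the observed combination effect less EA + EB − EA·EB, with EA and EB the single-agent effects.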

[2] = system: IGROV-1 (Ovarian Carcinoma)
How it was run: as §1

[3] = system: CAL-85-1 (Breast Carcinoma)
How it was run: as §1

[4] = system: SCC90 (Head and Neck Carcinoma)
How it was run: as §1

DK-MG (Glioblastoma) = system: DK-MG (Glioblastoma)
How it was run: as §1

NCI-H2452 (Mesothelioma) = system: NCI-H2452 (Mesothelioma)
How it was run: as §1

[5] = system: ATN-1 (T-Lymphoblastic Leukemia)
How it was run: as §1

[6] = system: HT-3 (Cervical Carcinoma)
How it was run: as §1

[7] = system: JURL-MK1 (Chronic Myelogenous Leukemia)
How it was run: as §1

[8] = system: NCI-H1975 (Lung Adenocarcinoma)
How it was run: as §1

[9] = system: MRK-nu-1 (Breast Carcinoma)
How it was run: as §1

[10] = system: GRANTA-519 (B-Cell Non-Hodgkin's Lymphoma)
How it was run: as §1

[11] = system: NCI-H1648 (Lung Adenocarcinoma)
How it was run: as §1

MG-63 (Osteosarcoma) = system: MG-63 (Osteosarcoma)
How it was run: as §1

[12] = system: KNS-62 (Squamous Cell Lung Carcinoma)
How it was run: as §1

[13] = system: NCI-H2170 (Squamous Cell Lung Carcinoma)
How it was run: as §1

[14] = system: BC-1 (B-Cell Non-Hodgkin's Lymphoma)
How it was run: as §1

[15] = system: OCI-M1 (Acute Myeloid Leukemia)
How it was run: as §1

[16] = system: NCI-H835 (Other Solid Carcinomas)
How it was run: as §1

[17] = system: RPMI-8402 (T-Lymphoblastic Leukemia)
How it was run: as §1

## CCc1c2c(nc3ccc(O)cc13)-c1cc3c(c(=O)n1C2)COC(=O)[C@]3(O)CC [SN-38] + CN(C)CCCOc1ccc(-c2ccc3ncc4c(c3c2)n(C2CCOCC2)c(=O)n4C)cn1 [AZD0156] (first compound max 0.3 µM, 7x7, partner max 1 µM)
[1]
  combination Emax: 0.864
[2]
  combination Emax: 0.691
[3]
  combination Emax: 0.639
[4]
  combination Emax: 0.423
DK-MG (Glioblastoma)
  combination Emax: 0.241
NCI-H2452 (Mesothelioma)
  combination Emax: 0.33
[5]
  combination Emax: 1
[6]
  combination Emax: 0.95
[7]
  combination Emax: 1
[8]
  combination Emax: 0.514
[9]
  combination Emax: 0.803
[10]
  combination Emax: 0.93
[11]
  combination Emax: 0.875
MG-63 (Osteosarcoma)
  combination Emax: 0.906
[12]
  combination Emax: 0.872
[13]
  combination Emax: 0.919
[14]
  combination Emax: 0.979
[15]
  combination Emax: 0.991
[16]
  combination Emax: 0.242
[17]
  combination Emax: 1
